Reference: US11866450B2, “Modulators of Cystic Fibrosis Transmembrane Conductance regulator, pharmaceutical compositions, methods of treatment, and process for making the modulators” (priority 2018, dated 2024)

Target: CFTR-mediated chloride transport (Homo sapiens, UniProt P13569)
Format: cell-based
Details: enteroid cells incubated with test compound 18-24 hours, acute 10 μM forskolin and 300 nM Compound III; for Max. Activity: % of chloride transport with 3 μM Compound A, 3 μM Compound II and 300 nM acute Compound III triple combination control
Protocol: Base medium (ADF+++) consisted of Advanced DMEM/Ham's F12, 2 mM Glutamax, 10 mM HEPES, […] penicillin/streptomycin.
Intestinal enteroid maintenance medium (IEMM) consisted of ADF+++, 1× B27 supplement, 1× N2 supplement, 1.25 mM N-acetyl cysteine, 10 mM Nicotinamide, 50 ng/mL hEGF, 10 nM Gastrin, 1 μg/mL hR-spondin-1, 100 ng/mL hNoggin, TGF-b type 1 inhibitor A-83-01, 100 μg/mL Primocin, 10 μM P38 MAPK inhibitor SB202190.
Bath 1 Buffer consisted of 1 mM MgCl2, 160 mM NaCl, 4.5 mM KCl, 10 mM HEPES, 10 mM Glucose, 2 mM CaCl2).
Chloride Free Buffer consisted of 1 mM Magnesium Gluconate, 2 mM Calcium Gluconate, 4.5 mM Potassium Gluconate, 160 mM Sodium Gluconate, 10 mM HEPES, 10 mM Glucose.
Bath1 Dye Solution consisted of Bath 1 Buffer, 0.04% Pluronic F127, 20 μM Methyl Oxonol, 30 μM CaCCinh-A01, 30 μM Chicago Sky Blue.
Chloride Free Dye Solution consisted of Chloride Free Buffer, 0.04% Pluronic F127, 20 μM Methyl Oxonol, 30 μM CaCCinh-A01, 30 μM Chicago Sky Blue.
Chloride Free Dye Stimulation Solution consisted of Chloride Free Dye Solution, 10 μM forskolin, 100 μM IBMX, and 300 nM Compound III.
Human intestinal epithelial enteroid cells were obtained from the Hubrecht Institute for Developmental Biology and Stem Cell Research, Utrecht, The Netherlands and expanded in T-Flasks as previously described (Dekkers J F, Wiegerinck C L, de Jonge H R, Bronsveld I, Janssens H M, de Winter-de Groot K M, Brandsma A M, de Jong N W M, Bijvelds M J C, Scholte B J, Nieuwenhuis E E S, van den Brink S, Clevers H, van der Ent C K, Middendorp S and M Beekman J M. A functional CFTR assay using primary cystic fibrosis intestinal organoids. Nat Med. 2013 July; 19(7):939-45).
Cells were recovered in cell recovery solution, collected by centrifugation at 650 rpm for 5 min at 4° C., resuspended in TryPLE and incubated for 5 min at 37° C. Cells were then collected by centrifugation at 650 rpm for 5 min at 4° C. and resuspended in IEMM containing 10 μM ROCK inhibitor (RI) (trans-4-[(1R)-1-aminoethyl]-N-4-pyridinylcyclohexanecarboxamide). The cell suspension was passed through a 40 μm cell strainer and resuspended at 1×10^6 cells/mL in IEMM containing 10 μM RI. Cells were seeded at 5000 cells/well into multi-well plates and incubated for overnight at 37° C., 95% humidity and 5% CO2 prior to assay.
Enteroid cells were incubated with test compound in IEMM for 18-24 hours at 37° C., 95% humidity and 5% CO2. Following compound incubations, a membrane potential dye assay was employed using a FLIPR Tetra to directly measure the potency and efficacy of the test compound on CFTR-mediated chloride transport following acute addition of 10 μM forskolin and 300 nM Compound III. Briefly, cells were washed 5 times in Bath 1 Buffer. Bath 1 Dye Solution was added and the cells were incubated for 25 min at room temperature. Following dye incubation, cells were washed 3 times in Chloride Free Dye Solution. Chloride transport was initiated by addition of Chloride Free Dye Stimulation Solution and the fluorescence signal was read for 15 min. The CFTR-mediated chloride transport for each condition was determined from the AUC of the fluorescence response to acute forskolin and 300 nM Compound III stimulation. Chloride transport was then expressed as a percentage of the chloride transport following treatment with 3 μM Compound A, 3 μM Compound II and 300 nM acute Compound III triple combination control (% Activity).

Chain of CFTR-mediated chloride transport (P13569 whole entry, looked up): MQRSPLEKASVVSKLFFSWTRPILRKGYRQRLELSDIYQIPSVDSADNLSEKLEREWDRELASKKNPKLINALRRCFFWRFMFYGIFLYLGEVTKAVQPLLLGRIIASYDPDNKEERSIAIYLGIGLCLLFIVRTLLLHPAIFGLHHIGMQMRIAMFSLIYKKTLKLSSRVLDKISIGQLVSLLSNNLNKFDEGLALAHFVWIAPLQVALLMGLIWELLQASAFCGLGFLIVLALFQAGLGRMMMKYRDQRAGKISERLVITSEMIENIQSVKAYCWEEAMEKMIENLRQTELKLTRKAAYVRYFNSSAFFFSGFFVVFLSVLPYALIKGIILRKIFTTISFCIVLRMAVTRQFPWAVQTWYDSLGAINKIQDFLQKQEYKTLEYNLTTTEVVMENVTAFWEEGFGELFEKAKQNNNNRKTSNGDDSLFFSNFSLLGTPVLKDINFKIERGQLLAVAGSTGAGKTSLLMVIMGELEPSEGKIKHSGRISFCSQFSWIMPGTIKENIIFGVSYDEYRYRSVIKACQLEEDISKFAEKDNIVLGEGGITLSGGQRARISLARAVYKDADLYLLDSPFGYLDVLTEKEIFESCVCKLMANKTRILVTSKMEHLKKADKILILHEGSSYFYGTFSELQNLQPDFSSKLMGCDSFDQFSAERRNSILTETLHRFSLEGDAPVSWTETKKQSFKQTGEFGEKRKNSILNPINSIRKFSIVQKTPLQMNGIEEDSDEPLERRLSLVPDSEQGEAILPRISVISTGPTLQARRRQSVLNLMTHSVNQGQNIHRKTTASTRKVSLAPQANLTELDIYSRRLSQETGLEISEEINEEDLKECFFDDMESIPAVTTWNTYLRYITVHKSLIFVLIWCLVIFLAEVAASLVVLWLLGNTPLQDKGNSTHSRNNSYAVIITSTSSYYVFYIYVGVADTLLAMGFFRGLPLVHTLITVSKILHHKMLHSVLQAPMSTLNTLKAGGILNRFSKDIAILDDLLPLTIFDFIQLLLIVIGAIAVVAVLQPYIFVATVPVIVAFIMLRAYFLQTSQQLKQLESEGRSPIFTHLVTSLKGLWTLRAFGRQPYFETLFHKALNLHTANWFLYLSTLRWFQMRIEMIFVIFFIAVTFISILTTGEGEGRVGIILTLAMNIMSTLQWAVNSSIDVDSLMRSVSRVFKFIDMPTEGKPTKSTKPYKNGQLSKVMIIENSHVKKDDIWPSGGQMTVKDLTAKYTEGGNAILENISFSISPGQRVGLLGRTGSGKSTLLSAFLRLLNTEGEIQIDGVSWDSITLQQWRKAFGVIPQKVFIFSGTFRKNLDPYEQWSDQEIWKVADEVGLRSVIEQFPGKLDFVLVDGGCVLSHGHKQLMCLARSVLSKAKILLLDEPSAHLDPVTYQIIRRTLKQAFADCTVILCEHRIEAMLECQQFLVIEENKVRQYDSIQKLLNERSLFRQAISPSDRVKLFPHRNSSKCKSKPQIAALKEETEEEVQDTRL

Compound | EC50 | Max. Activity
CC1(C)C[C@H]2CCCOc3cccc(n3)S(=O)(=O)NC(=O)c3ccc(-n4ccc(OCCC5(C(F)(F)F)CC5)n4)nc3N1C2 (single isomer, unassigned) [Compound 48, 12,12-dimethyl-8-(3-{2-[1-(trifluoromethyl)cyclopropyl]ethoxy}-1H-pyrazol-1-yl)-18-oxa-2λ^6-thia-3,9,11,23-tetraazatetracyclo[17.3.1.111,14.05,10]tetracosa-1(22),5,7,9,19(23),20-hexaene-2,2,4-trione] | > 3 µM | + (+ is <30%)
CN1CCC[C@H]2CN(c3nc(-n4ccc(OCCC5(C(F)(F)F)CC5)n4)ccc3C(=O)NS(=O)(=O)c3cccc1n3)C(C)(C)C2 (single isomer, unassigned) [Compound 138, 12,12,18-Trimethyl-8-(3-{2-[1-(trifluoromethyl)cyclopropyl]ethoxy}-1H-pyrazol-1-yl)-2λ^6-thia-3,9,11,18,23-pentaazatetracyclo[17.3.1.111,14.05,10]tetracosa-1(23),5(10),6,8,19,21-hexaene-2,2,4-trione] | > 3 µM | + (+ is <30%)
CC1(C)C[C@H]2CCCCNc3cccc(n3)S(=O)(=O)NC(=O)c3ccc(-n4cc(OCCC5(C(F)(F)F)CC5)cn4)nc3N1C2 (single isomer, unassigned) [Compound 83, 12,12-dimethyl-8-(4-{2-[1-(trifluoromethyl)cyclopropyl]ethoxy}-1H-pyrazol-1-yl)-2λ^6-thia-3,9,11,19,24-pentaazatetracyclo[18.3.1.111,14.05,10]pentacosa-1(23),5,7,9,20(24),21-hexaene-2,2,4-trione] | < 1 µM | ++ (++ is 30-60%)
CC1(C)C[C@@H]2CCCNc3cccc(n3)S(=O)(=O)NC(=O)c3ccc(N4CC[C@H](CCCC5(C(F)(F)F)CC5)C4=O)nc3N1C2 (single isomer, unassigned) [Compound 175] | < 1 µM | +++ (+++ is >60%)
Cc1c2cnn1CCCC1CN(c3nc(-n4ccc(OCC(C)(C)C(F)(F)F)n4)ccc3C(=O)NS2(=O)=O)C(C)(C)C1 (single isomer, unassigned) [Compound 286, 20,20,22-trimethyl-4-[3-(3,3,3-trifluoro-2,2-dimethylpropoxy)-1H-pyrazol-1-yl]-10λ^6-thia-1,3,9,13,14-pentaazatetracyclo[16.2.1.111,14.02,7]docosa-2,4,6,11(22),12-pentaene-8,10,10-trione] | < 1 µM | + (+ is <30%)
CC1(C)CC[C@@H]2CCCNc3cccc(n3)S(=O)(=O)NC(=O)c3ccc(-n4ccc(OCCC5(C(F)(F)F)CC5)n4)nc3N21 [Compound 33, (15S)-12,12-Dimethyl-8-(3-{2-[1-(trifluoromethyl)cyclopropyl]ethoxy}-1H-pyrazol-1-yl)-2λ^6-thia-3,9,11,19,24-pentaazatetracyclo[18.3.1.05,10.011,15]tetracosa-1(23),5,7,9,20(24),21-hexaene-2,2,4-trione] | > 3 µM | + (+ is <30%)
Cc1ccc2nc1S(=O)(=O)NC(=O)c1ccc(-n3ccc(OCCC4(C(F)(F)F)CC4)n3)nc1N1C[C@H](CCCN2)CC1(C)C (single isomer, unassigned) [Compound 149, 12,12,22-trimethyl-8-(3-{2-[1-(trifluoromethyl)cyclopropyl]ethoxy}-1H-pyrazol-1-yl)-2λ^6-thia-3,9,11,18,23-pentaazatetracyclo[17.3.1.111,14.05,10]tetracosa-1(23),5(10),6,8,19,21-hexaene-2,2,4-trione] | < 1 µM | +++ (+++ is >60%)
CC1(C)C[C@H]2CCCCOc3ccc(cc3)S(=O)(=O)NC(=O)c3ccc(-n4ccc(OCCC5(C(F)(F)F)CC5)n4)nc3N1C2 (single isomer, unassigned) [Compound 96, 12,12-dimethyl-8-(3-{2-[1-(trifluoromethyl)cyclopropyl]ethoxy}-1H-pyrazol-1-yl)-19-oxa-2λ^6-thia-3,9,11-triazatetracyclo[18.2.2.111,14.05,10]pentacosa-1(22),5,7,9,20,23-hexaene-2,2,4-trione] | > 3 µM | + (+ is <30%)
CC1(C)CC2CCCNc3cccc(n3)S(=N)(=O)NC(=O)c3ccc(-n4ccc(OCCC5(C(F)(F)F)CC5)n4)nc3N1C2 (stereo not shown) [Compound 263, 2-imino-12,12-dimethyl-8-(3-{2-[1-(trifluoromethyl)cyclopropyl]ethoxy}-1H-pyrazol-1-yl)-2λ^6-thia-3,9,11,18,23-pentaazatetracyclo[17.3.1.111,14.05,10]tetracosa-1(23),5,7,9,19,21-hexaene-2,4-dione] | < 1 µM | ++ (++ is 30-60%)
CC1(C)C[C@H]2CCCn3ccc(n3)S(=O)(=O)NC(=O)c3ccc(-n4ccc(OCCC(C5CC5)C5CC5)n4)nc3N1C2 (single isomer, unassigned) [Compound 153, 4-[3-(3,3-dicyclopropylpropoxy)-1H-pyrazol-1-yl]-20,20-dimethyl-10λ^6-thia-1,3,9,14,22-pentaazatetracyclo[16.2.1.111,14.02,7]docosa-2,4,6,11(22),12-pentaene-8,10,10-trione] | > 3 µM | + (+ is <30%)
CC1(C)C[C@H]2CCCCOc3ccc(cn3)S(=O)(=O)NC(=O)c3ccc(-n4ccc(OCCC5(C(F)(F)F)CC5)n4)nc3N1C2 (single isomer, unassigned) [Compound 104, 12,12-dimethyl-8-(3-{2-[1-(trifluoromethyl)cyclopropyl]ethoxy}-1H-pyrazol-1-yl)-19-oxa-2λ^6-thia-3,9,11,21-tetraazatetracyclo[18.2.2.111,14.05,10]pentacosa-1(23),5,7,9,20(24),21-hexaene-2,2,4-trione] | > 3 µM | + (+ is <30%)
CC1(C)C[C@@H]2CCCNc3ccc(O)c(n3)S(=O)(=O)NC(=O)c3ccc(-n4ccc(OCCC5C6(CC6)C56CC6)n4)nc3N1C2 [Compound 260, (14S)-8-[3-(2-{dispiro[2.0.2.1]heptan-7-yl}ethoxy)-1H-pyrazol-1-yl]-22-hydroxy-12,12-dimethyl-2λ^6-thia-3,9,11,18,23-pentaazatetracyclo[17.3.1.111,14.05,10]tetracosa-1(22),5,7,9,19(23),20-hexaene-2,2,4-trione] | < 1 µM | +++ (+++ is >60%)
CC1(C)C[C@H]2CCCCOc3ccc(cc3)S(=O)(=O)NC(=O)c3ccc(-n4ccc(OCCC5(C(F)(F)F)CC5)n4)nc3N1C2 (single isomer, unassigned) [Compound 95, 12,12-dimethyl-8-(3-{2-[1-(trifluoromethyl)cyclopropyl]ethoxy}-1H-pyrazol-1-yl)-19-oxa-2λ^6-thia-3,9,11-triazatetracyclo[18.2.2.111,14.05,10]pentacosa-1(22),5,7,9,20,23-hexaene-2,2,4-trione] | < 1 µM | ++ (++ is 30-60%)
CC1(CC2CCN(c3ccc4c(n3)N3C[C@@H](CCCNc5cccc(n5)S(=O)(=O)NC4=O)CC3(C)C)C2=O)CCCCC1 (stereo partly drawn) [Compound 101, (14S)-12,12-dimethyl-8-{3-[(1-methylcyclohexyl)methyl]-2-oxopyrrolidin-1-yl}-2λ^6-thia-3,9,11,18,23-pentaazatetracyclo[17.3.1.111,14.05,10]tetracosa-1(22),5,7,9,19(23),20-hexaene-2,2,4-trione] | < 1 µM | ++ (++ is 30-60%)
